Publication PMC4154858, “Inhibition of the SR Protein-Phosphorylating CLK Kinases of Plasmodium falciparum Impairs Blood Stage Replication and Malaria Transmission” (PLoS ONE, 2014)

How the values were obtained:
Assay type in all cases: biochemical
Settings in all cases: labelled compound; histone H1, MBP or casein as phosphoacceptor; 10 µM ATP, Mg/Mn, pH 7.5, 37 °C
[1] = biological target: T1, PfCLK-3 (Plasmodium falciparum, UniProt Q8IIL5); assay: radiometric kinase assay of immunoprecipitate, autoradiography
T1 construct: gene PF3D7_1114700; endogenous full-length, about 80 kDa, immunoprecipitated from mixed asexual blood stage lysate on protein G-beads
T1 sequence (Q8IIL5 1-699): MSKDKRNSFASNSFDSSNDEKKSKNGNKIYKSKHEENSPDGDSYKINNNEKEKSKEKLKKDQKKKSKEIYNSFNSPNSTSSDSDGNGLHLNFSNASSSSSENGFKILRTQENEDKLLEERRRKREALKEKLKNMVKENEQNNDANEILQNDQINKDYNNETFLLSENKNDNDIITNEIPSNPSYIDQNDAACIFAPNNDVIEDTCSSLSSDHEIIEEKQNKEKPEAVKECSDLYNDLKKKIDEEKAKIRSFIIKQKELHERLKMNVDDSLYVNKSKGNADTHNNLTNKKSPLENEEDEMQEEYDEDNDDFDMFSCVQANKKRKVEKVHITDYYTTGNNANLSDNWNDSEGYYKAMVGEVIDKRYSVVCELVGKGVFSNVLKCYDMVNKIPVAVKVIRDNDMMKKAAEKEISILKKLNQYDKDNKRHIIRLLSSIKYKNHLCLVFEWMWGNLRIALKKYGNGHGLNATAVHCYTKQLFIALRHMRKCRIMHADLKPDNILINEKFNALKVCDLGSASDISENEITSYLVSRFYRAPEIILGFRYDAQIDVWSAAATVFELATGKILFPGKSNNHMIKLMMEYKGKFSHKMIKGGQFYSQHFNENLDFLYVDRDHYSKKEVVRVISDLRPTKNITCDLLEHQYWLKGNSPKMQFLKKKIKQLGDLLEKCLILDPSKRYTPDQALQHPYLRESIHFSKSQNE

[2] = biological target: T2, PfCLK-2 (Plasmodium falciparum, UniProt Q8IL41); assay: as above
T2 construct: gene PF3D7_1443000; endogenous full-length, about 150 kDa, immunoprecipitated from mixed asexual blood stage lysate on protein G-beads
T2 sequence (Q8IL41 1-1268): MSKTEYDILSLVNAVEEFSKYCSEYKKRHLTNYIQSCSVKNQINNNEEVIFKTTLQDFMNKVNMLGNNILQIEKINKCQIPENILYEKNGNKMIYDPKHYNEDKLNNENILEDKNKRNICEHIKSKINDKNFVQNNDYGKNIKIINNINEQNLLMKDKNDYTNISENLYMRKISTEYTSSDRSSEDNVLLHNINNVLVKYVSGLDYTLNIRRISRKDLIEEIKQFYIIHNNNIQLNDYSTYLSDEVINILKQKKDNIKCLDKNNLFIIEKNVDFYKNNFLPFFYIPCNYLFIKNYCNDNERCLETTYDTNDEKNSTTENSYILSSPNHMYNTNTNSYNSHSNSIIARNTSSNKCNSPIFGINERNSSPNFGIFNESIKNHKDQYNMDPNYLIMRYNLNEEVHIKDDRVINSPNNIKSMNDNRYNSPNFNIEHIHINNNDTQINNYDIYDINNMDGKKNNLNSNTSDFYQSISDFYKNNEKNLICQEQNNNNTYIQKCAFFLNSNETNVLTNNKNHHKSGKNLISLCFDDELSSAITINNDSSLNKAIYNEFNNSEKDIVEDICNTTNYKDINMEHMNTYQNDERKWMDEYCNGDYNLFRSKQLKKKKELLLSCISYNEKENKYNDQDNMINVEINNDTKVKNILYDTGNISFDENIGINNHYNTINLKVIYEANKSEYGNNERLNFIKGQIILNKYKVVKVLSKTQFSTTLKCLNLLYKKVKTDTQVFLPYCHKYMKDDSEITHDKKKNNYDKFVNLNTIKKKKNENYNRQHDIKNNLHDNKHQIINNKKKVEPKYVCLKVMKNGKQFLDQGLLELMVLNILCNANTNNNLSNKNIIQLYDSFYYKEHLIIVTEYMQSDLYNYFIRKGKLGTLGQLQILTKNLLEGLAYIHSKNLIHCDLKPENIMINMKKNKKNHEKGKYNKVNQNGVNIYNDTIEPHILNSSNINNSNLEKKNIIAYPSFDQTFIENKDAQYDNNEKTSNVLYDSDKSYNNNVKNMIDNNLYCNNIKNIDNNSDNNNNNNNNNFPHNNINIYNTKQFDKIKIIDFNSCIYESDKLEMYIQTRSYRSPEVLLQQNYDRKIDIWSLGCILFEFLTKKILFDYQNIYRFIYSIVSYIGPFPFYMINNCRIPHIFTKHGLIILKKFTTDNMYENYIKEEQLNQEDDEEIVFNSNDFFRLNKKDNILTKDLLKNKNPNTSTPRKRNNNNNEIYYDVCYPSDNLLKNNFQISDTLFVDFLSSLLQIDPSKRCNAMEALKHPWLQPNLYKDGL

[3] = biological target: T3, PfCLK-4 (Plasmodium falciparum, UniProt O77306); assay: as above
T3 construct: gene PF3D7_0302100; endogenous full-length, about 160 kDa, immunoprecipitated from mixed asexual blood stage lysate on protein G-beads
T3 sequence (O77306 1-1338): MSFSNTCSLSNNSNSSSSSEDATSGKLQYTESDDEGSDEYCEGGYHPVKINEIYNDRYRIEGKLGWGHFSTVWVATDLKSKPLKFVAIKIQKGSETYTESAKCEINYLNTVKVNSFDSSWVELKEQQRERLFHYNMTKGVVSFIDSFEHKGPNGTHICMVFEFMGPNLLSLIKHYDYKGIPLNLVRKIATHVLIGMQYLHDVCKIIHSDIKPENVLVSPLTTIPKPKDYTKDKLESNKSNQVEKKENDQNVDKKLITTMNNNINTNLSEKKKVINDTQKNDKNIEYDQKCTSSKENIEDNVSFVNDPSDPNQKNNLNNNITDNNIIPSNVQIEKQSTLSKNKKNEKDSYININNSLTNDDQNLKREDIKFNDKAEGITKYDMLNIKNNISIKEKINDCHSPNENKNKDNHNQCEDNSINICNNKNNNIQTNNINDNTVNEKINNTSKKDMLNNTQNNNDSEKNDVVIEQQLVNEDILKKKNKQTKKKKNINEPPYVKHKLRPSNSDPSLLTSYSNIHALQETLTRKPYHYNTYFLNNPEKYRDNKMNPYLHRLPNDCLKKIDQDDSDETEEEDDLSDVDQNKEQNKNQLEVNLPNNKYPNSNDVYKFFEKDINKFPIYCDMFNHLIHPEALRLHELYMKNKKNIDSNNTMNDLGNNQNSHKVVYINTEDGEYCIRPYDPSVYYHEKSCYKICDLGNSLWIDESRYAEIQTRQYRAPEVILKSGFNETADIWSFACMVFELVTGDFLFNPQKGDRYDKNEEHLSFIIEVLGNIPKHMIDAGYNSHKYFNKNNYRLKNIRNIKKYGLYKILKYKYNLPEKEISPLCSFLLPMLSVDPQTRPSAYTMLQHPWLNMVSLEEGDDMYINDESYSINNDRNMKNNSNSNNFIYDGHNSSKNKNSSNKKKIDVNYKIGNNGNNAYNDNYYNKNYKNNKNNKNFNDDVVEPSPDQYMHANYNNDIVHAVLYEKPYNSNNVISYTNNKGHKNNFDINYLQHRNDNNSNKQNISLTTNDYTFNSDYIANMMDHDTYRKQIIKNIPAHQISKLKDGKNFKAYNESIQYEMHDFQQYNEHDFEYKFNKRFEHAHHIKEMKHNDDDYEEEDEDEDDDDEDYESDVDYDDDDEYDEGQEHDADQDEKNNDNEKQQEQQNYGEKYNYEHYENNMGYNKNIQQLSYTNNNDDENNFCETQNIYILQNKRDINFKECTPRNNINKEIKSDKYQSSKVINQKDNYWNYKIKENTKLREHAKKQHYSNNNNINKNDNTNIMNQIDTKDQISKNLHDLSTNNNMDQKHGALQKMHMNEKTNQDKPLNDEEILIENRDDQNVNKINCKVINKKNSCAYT

[4] = biological target: T4, PfPK6 (Plasmodium falciparum, UniProt O77239); assay: radiometric kinase assay, autoradiography
T4 construct: gene PK6; recombinant His6-tagged, purified as previously reported
T4 sequence (O77239 1-305): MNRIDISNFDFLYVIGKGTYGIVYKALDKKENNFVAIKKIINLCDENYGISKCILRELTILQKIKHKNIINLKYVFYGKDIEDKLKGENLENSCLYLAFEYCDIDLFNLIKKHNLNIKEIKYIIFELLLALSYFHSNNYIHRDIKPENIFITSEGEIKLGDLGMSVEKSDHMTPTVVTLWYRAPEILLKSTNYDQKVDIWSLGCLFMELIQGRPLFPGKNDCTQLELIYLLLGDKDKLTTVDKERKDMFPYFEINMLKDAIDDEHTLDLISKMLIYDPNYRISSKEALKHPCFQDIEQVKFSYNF

## Nc1ncnc2c1ncn2[C@@H]1O[C@H](COP(=O)(O)OP(=O)(O)OP(=O)(O)O)[C@@H](O)[C@H]1O [ATP]
[1]
  radiometric kinase assay of immunoprecipitate, autoradiography: All PfCLKs were associated with phosphorylation activity of all three substrates
[2]
  radiometric kinase assay of immunoprecipitate, autoradiography: All PfCLKs were associated with phosphorylation activity of all three substrates
[3]
  radiometric kinase assay of immunoprecipitate, autoradiography: All PfCLKs were associated with phosphorylation activity of all three substrates
[4]
  radiometric kinase assay, autoradiography: also exhibited strong phosphorylation activity of the three exogenous substrates
